Source: patent publication US4806540A, “1-heteroaryl-4-aryl-pyrazole microbicides” (Bayer Aktiengesellschaft, priority 1985, dated 1989)
In brackets after ≈: the same amount, converted by molar mass.

Columns and labels:
Staphylococcus aureus = test: Action against bacteria, MIC (agar); format: cell-based; details: 336 h, agar containing broth, 28° C., 2 weeks
Procedure: (§1) The nutrient medium is then infected with in each case the test organisms listed in Table C and the infected medium is kept at 28° C. and 60 to 70% relative atmospheric humidity for 2 weeks. […] The compounds according to Preparation Examples 2, 6a, 12a, 9b, 13 and 14 show good actions.

Escherichia coli = test: Action against bacteria, MIC (agar); format: cell-based; details: 336 h, agar containing broth, 28° C., 2 weeks
Procedure: as §1

[1] = system: fungi: Alternaria tenuis, Aspergillus niger, Aureobasidium pullulans, Chaetomium globosum, Cladosporium cladoporioides, Lentinus tigrinus, Penicillium glaucum …; test: Minimum inhibitory concentrations (MIC), activity against fungi (agar); format: cell-based; details: agar from beer wort and peptone; 28° C., 60 to 70% humidity, 2 weeks; 0.1 mg/l to 5,000 mg/l
Procedure: Active compounds according to the invention are added in concentrations of 0.1 mg/l to 5,000 mg/l to an agar prepared from beer wort and peptone. After storage at 28° C. and 60 to 70% relative atmospheric humidity for 2 weeks, the MIC is determined. […] Good actions of the listed test organisms are shown, for example, by the compounds according to Preparation Examples 2, 6a, 12a, 9b, 24 and 25: […]

Pyricularia oryzae = format: in vivo, Pyricularia oryzae (on young rice plants); details: protective, rice plants; evaluation 4 days after inoculation
bacteria = test: Action against bacteria (test organisms of Table C), result in words; format: cell-based, Escherichia coli, Staphylococcus aureus; details: 1 to 5,000 ppm; agar containing broth, 28° C., 2 weeks
Procedure: as §1

Row | Compound | MIC (Staphylococcus aureus) | MIC (Escherichia coli) | action against the listed test organisms (fungi) [1] | activity compared with the prior art (Pyricularia oryzae) | action against bacteria (bacteria)
1 | CC(=O)n1cc(-c2ccccc2)c(=O)n1-c1ncccn1 [Example 2, 1-Pyrimid-2-yl-2-acetyl-4-phenyl-pyrazol-5-one] | 1000 µg/mL (≈ 3570 µM) | 750 µg/mL (≈ 2680 µM) | Good actions | clearly superior activity compared with the prior art | good actions
2 | CS(=O)(=O)n1cc(-c2ccccc2)c(=O)n1-c1ccccn1 [Example 24, 1-pyrid-2-yl-2-methylsulphonyl-4-phenyl-pyrazolin-5-one] | 50 µg/mL (≈ 159 µM) | 50 µg/mL (≈ 159 µM) | – | – | –
3 | O=c1c(-c2ccccc2)cn(S(=O)(=O)c2ccccc2)n1-c1ccccn1 [Example 25] | 20 µg/mL (≈ 53 µM) | 1000 µg/mL (≈ 2650 µM) | Good actions | – | –
4 | mixture of 1-pyrid-2-yl-2-acetyl-4-phenyl-pyrazolin-5-one and 1-pyrid-2-yl-4-phenyl-5-acetoxypyrazole [Example 1] | – | – | – | clearly superior activity compared with the prior art | –
